Assay results from patent US20130052145A1, “ADHESIVE SLOW-RELEASE FORMULATIONS FOR THE LOCAL ADMINISTRATION OF CURCUMIN” (Orphanidis Pharma Research GmbH, priority 2010, published 2013).

Tests used:
[1] = Solubility studies with curcumin in organic solvents and solvent + water mixtures; type: physicochemical
Description: For oral solutions, curcumin must be dissolved. The solvents listed in Table 1 have been tested for this purpose. The maximum concentration of curcumin that could be dissolved is listed for each solvent. If curcumin was soluble, water was added to the solvents and the solubility in this mixture was also determined: […]

[2] = Storage stability of liquid curcumin formulations under accelerated conditions (HPLC); type: physicochemical

% Solubility (w/v) ([1]; Collidone 12 + water 4 + 6): 0 % (w/v) | % Solubility (w/v) ([1]; Collidone12 + water 5 + 5): 0 % (w/v) | % Solubility (w/v) ([1]; Collidone 17 + water 4 + 6): 0 % (w/v) | % Solubility (w/v) ([1]; Collidone 17 + water 5 + 5): 0 % (w/v) | % Solubility (w/v) ([1]; N-Ethyl-2-pyrrolidone + water 6 + 4): 4 % (w/v) | % Solubility (w/v) ([1]; N-Ethyl-2-pyrrolidone + water 7 + 3): 5 % (w/v) | % Solubility (w/v) ([1]; N-Methyl-2-pyrrolidone + water 6 + 4): 4 % (w/v) | % Solubility (w/v) ([1]; N-Methyl-2-pyrrolidone + water 7 + 3): 4 % (w/v) | % Solubility (w/v) ([1]; PEG 300 + water 8 + 2): 2.5 % (w/v) | % Solubility (w/v) ([1]; PEG 300 + water 9 + 1): 2.5 % (w/v) | % Solubility (w/v) ([1]; PVP + water 3 + 7): 0 % (w/v) | % Solubility (w/v) ([1]; Pluronic F-68 + water 3 + 7): 0 % (w/v) | % Solubility (w/v) ([1]; Pyrrolidone + water 1 + 9): 1 % (w/v) | % Solubility (w/v) ([1]; Pyrrolidone + water 5 + 5): 2.5 % (w/v) | % Solubility (w/v) ([1]; Pyrrolidone + water 6 + 4): 3 % (w/v) | % Solubility (w/v) ([1]; Pyrrolidone + water 7 + 3): 5 % (w/v) | % Solubility (w/v) ([1]; Pyrrolidone + water 9 + 1): 5 % (w/v) | % Solubility (w/v) ([1]; solvent Capmul): 0 % (w/v) | % Solubility (w/v) ([1]; solvent Cremophor): 0 % (w/v) | % Solubility (w/v) ([1]; solvent Dimethylacetamide): 4 % (w/v) | % Solubility (w/v) ([1]; solvent Glycerol): 0 % (w/v) | % Solubility (w/v) ([1]; solvent Hydrogenated peanut oil): 0 % (w/v) | % Solubility (w/v) ([1]; solvent Labrafil): 3 % (w/v) | % Solubility (w/v) ([1]; solvent Labrasol): 0 % (w/v) | % Solubility (w/v) ([1]; solvent N-Ethyl-2-pyrrolidone): 30 % (w/v) | % Solubility (w/v) ([1]; solvent N-Methyl-2-pyrrolidone): 30 % (w/v) | % Solubility (w/v) ([1]; solvent PEG 300): 2.5 % (w/v) | % Solubility (w/v) ([1]; solvent PVA): 0 % (w/v) | % Solubility (w/v) ([1]; solvent Pluronic L44): 3 % (w/v) | % Solubility (w/v) ([1]; solvent Propylene glycol): 0 % (w/v) | % Solubility (w/v) ([1]; solvent Pyrrolidone): 20 % (w/v) | % Solubility (w/v) ([1]; solvent Refined corn oil): 0 % (w/v) | Stability in storage of curcumin in PEG formulations [2]: comparatively high stability in storage
SMILES: COc1cc(/C=C/C(=O)CC(=O)/C=C/c2ccc(O)c(OC)c2)ccc1O [curcumin]
